Experimental data reported in PubChem BioAssay AID264 (DTP/NCI, 2004).
Where “and” joins values, the source holds several entries; their conditions need not be identical. Equal values may be shown once. Records with an inconclusive call do not appear.

Tested on: nude mice, LX-1 lung xenograft intrarenal, tumor weight T/C
Assay: NCI In Vivo Anticancer Drug Screen. Data for tumor model Human Lung LX-1 Xenograft (intrarenal inoculation) in NU/NU Swiss (nude) mice
Settings: endpoint: mean tumor weight change, higher = larger tumour
Description: The antitumor activity of compounds was measured in mice bearing transplantable tumors. Survival or tumor size were measured and the results are expressed as the measurement made in the treated group (T) divided by the measurement made in the vehicle treated control group (C). The tumor model used in this assay is Human Lung LX-1 Xenograft (intrarenal inoculation) in NU/NU Swiss (nude) mice

[1] = dose: 150.0 mg/kg/injection, schedule: Q04DX003 (sc), vehicle: saline with Tween-80
[2] = dose: 300.0 mg/kg/injection, schedule: Q04DX003 (sc), vehicle: saline with Tween-80
[3] = dose: 1200.0 mg/kg/injection, schedule: Q04DX003 (sc), vehicle: saline with Tween-80
[4] = dose: 12.5 mg/kg/injection, schedule: Q01DX010 (sc), vehicle: saline with Tween-80
[5] = dose: 25.0 mg/kg/injection, schedule: Q01DX010 (sc), vehicle: saline with Tween-80

C1CCC2OCCOCCOC3CCCCC3OCCOCCOC2C1 (stereo not drawn)
T/C (dose: 9.38 mg/kg/injection, schedule: Q04DX003 (sc), vehicle: Klucel (hydroxypropylcellulose) (HPC)): 170 % of control | T/C (dose: 18.75 mg/kg/injection, schedule: Q04DX003 (sc), vehicle: Klucel (hydroxypropylcellulose) (HPC)): 159 % of control

CC1=C(/C=C/C(C)=C/C=C/C(C)=C/C=O)C(C)(C)CCC1
T/C (dose: 75.0 mg/kg/injection, schedule: Q04DX003 (sc), vehicle: saline with Tween-80): 94 % of control | T/C [1]: 68 % of control | T/C [2]: 56 % of control and 74 % of control | T/C [3]: 57 % of control

CC1OC1C(=O)C1(O)C(C)C(O)C23OC2(C(O)c2c(O)cccc2C3=O)C1O (stereo not drawn)
T/C (dose: 6.0 mg/kg/injection, schedule: Q04DX003 (sc), vehicle: Klucel (hydroxypropylcellulose) (HPC)): 83 % of control | T/C (dose: 12.0 mg/kg/injection, schedule: Q04DX003 (sc), vehicle: Klucel (hydroxypropylcellulose) (HPC)): 98 % of control | T/C (dose: 24.0 mg/kg/injection, schedule: Q04DX003 (sc), vehicle: Klucel (hydroxypropylcellulose) (HPC)): 110 % of control | T/C (dose: 48.0 mg/kg/injection, schedule: Q04DX003 (sc), vehicle: Klucel (hydroxypropylcellulose) (HPC)): 41 % of control

CCN(CC)CCCC(C)Nc1c2ccc(Cl)cc2nc2ccc(OC)cc12 (stereo not drawn)
T/C [4]: 98 % of control | T/C [5]: 102 % of control and 108 % of control | T/C [1]: 75 % of control | T/C [2]: 41 % of control

O=C(NC1CCCCC1)OCc1c(COC(=O)NC2CCCCC2)c(-c2ccc(Cl)c(Cl)c2)n2c1CCC2
T/C [2]: 88 % of control | T/C (dose: 600.0 mg/kg/injection, schedule: Q04DX003 (sc), vehicle: saline with Tween-80): 94 % of control | T/C [3]: 104 % of control | T/C (dose: 2400.0 mg/kg/injection, schedule: Q04DX003 (sc), vehicle: saline with Tween-80): 104 % of control

CCOC(=O)C1=C(C#N)C2(CCC(OCc3ccccc3)CC2)C(=O)O1 (stereo not drawn)
T/C (dose: 300.0 mg/kg/injection, schedule: Q04DX003 (sc), vehicle: suspension in saline): 106 % of control | T/C (dose: 600.0 mg/kg/injection, schedule: Q04DX003 (sc), vehicle: suspension in saline): 111 % of control | T/C (dose: 1200.0 mg/kg/injection, schedule: Q04DX003 (sc), vehicle: suspension in saline): 77 % of control

c1ccc2c(c1)nnn1c3cnccc3nc21
T/C (dose: 3.12 mg/kg/injection, schedule: Q01DX010 (sc), vehicle: saline with Tween-80): 59 % of control | T/C (dose: 6.25 mg/kg/injection, schedule: Q01DX010 (sc), vehicle: saline with Tween-80): 187 % of control | T/C [4]: 72 % of control | T/C [5]: 107 % of control | T/C (dose: 50.0 mg/kg/injection, schedule: Q01DX010 (sc), vehicle: saline with Tween-80): 160 % of control | T/C (dose: 100.0 mg/kg/injection, schedule: Q01DX010 (sc), vehicle: saline with Tween-80): 210 % of control

Cc1ccccc1CN1C2=NCCN2C(=O)C2=C1CCN(S(=O)(=O)c1ccc(Cl)c(S(N)(=O)=O)c1)C2
T/C (dose: 150.0 mg/kg/injection, schedule: Q04DX003 (sc), vehicle: saline): 77 % of control | T/C (dose: 300.0 mg/kg/injection, schedule: Q04DX003 (sc), vehicle: saline): 96 % of control | T/C (dose: 600.0 mg/kg/injection, schedule: Q04DX003 (sc), vehicle: saline): 155 % of control

CC1(C)COCN1COCCOCN1COCC1(C)C
T/C (dose: 200.0 mg/kg/injection, schedule: Q04DX003 (sc), vehicle: saline): 169 % of control | T/C (dose: 400.0 mg/kg/injection, schedule: Q04DX003 (sc), vehicle: saline): 191 % of control

COc1cccc2c1C(=O)c1c(O)c3c(c(O)c1C2=O)CC(O)(C(=O)CO)CC3OC1CC(N)C(O)C(C)O1 (stereo not drawn)
T/C (dose: 12.0 mg/kg/injection, schedule: Q01DX010 (sc), vehicle: saline): 71 % of control | T/C (dose: 24.0 mg/kg/injection, schedule: Q01DX010 (sc), vehicle: saline): 24 % of control | T/C (dose: 25.0 mg/kg/injection, schedule: Q01DX010 (sc), vehicle: water): 71 % of control | T/C (dose: 37.5 mg/kg/injection, schedule: Q04DX003 (sc), vehicle: water): 82 % of control | T/C (dose: 48.0 mg/kg/injection, schedule: Q01DX010 (sc), vehicle: saline): 31 % of control | T/C (dose: 50.0 mg/kg/injection, schedule: Q01DX010 (sc), vehicle: water): 71 % of control | T/C (dose: 75.0 mg/kg/injection, schedule: Q04DX003 (sc), vehicle: water): 105 % of control | T/C (dose: 100.0 mg/kg/injection, schedule: Q01DX010 (sc), vehicle: water): 39 % of control | T/C (dose: 150.0 mg/kg/injection, schedule: Q04DX003 (sc), vehicle: water): 193 % of control | T/C (dose: 200.0 mg/kg/injection, schedule: Q01DX010 (sc), vehicle: water): 11 % of control | T/C (dose: 300.0 mg/kg/injection, schedule: Q04DX003 (sc), vehicle: water): 46 % of control
